Values quoted from earlier work in patent publication US20240252447A1 (Ovid Therapeutics Inc., priority 2019, published 2024).

Assays:
[1] = tested on: sleep onset and sleep maintenance; conditions: three-month efficacy study, insomnia
[2] = patients with a history of drug abuse

Oc1noc2c1CCNC2 [Gaboxadol, 4,5,6,7-tetrahydroisoxazolo [5,4-c]pyridine-3-ol]
effects in sleep onset and sleep maintenance [1]: failed to show significant effects in sleep onset and sleep maintenance
time to peak concentration (conventional pharmaceutical formulations such as tablets and capsules): ≤ 30 min
half-life (t1/2) (plasma half-life): 1.5 to 2 h
psychiatric adverse events [2]: steep increase in psychiatric adverse events
